In patent publication US8859541B2, “6-alkynylpyridines” (Boehringer Ingelheim International GmbH, priority 2012, dated 2014):
pIC50: −log10 of the molar value.

Tests used:
XIAP BIR3 = biological target: T1, XIAP BIR3 (Homo sapiens, UniProt P98170); assay: XIAP BIR3 binding assay (DELFIA), displacement of SMAC peptide; conditions: GST-fusion BIR3 domain (aa 241 to 356) 10 nM, SMAC peptide 10 nM; activity of the (S)-isomers
T1 construct: covering amino acids 241 to 356; XIAP BIR3; made in house; host or cells: E. coli
T1 sequence (P98170 241-356): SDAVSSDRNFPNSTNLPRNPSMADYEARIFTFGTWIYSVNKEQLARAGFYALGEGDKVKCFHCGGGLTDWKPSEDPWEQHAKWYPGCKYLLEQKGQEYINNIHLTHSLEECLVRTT
How it was run: (§1)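 Each BIR3 domain (10 nM) incubated with biotinylated N-terminal SMAC peptide (10 nM) and compound for 1 h at room temp in Tris/NaCl buffer with BSA, DTT and Triton X-100. Captured on streptavidin plates; bound BIR3 detected by Eu-labelled anti-GST time-resolved fluorescence, giving IC50 values.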

cIAP1 BIR3 = biological target: T2, cIAP1 BIR3 (Homo sapiens, UniProt Q13490); assay: cIAP1 BIR3 binding assay (DELFIA), displacement of SMAC peptide; conditions: GST-fusion BIR3 domain (aa 256 to 363) 10 nM, SMAC peptide 10 nM; activity of the (S)-isomers
T2 construct: covering amino acids 256 to 363; cIAP1 BIR3; made in house; host or cells: E. coli
T2 sequence (Q13490 256-363): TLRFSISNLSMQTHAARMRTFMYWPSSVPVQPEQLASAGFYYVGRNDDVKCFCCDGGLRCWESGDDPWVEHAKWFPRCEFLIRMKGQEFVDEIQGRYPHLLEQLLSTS
How it was run: as §1

SMILES | pIC50 (XIAP BIR3) | pIC50 (cIAP1 BIR3)
CNC(C)C(=O)Nc1ccc(-c2cncc(OC)c2)c(C#Cc2ccccc2)n1 (stereo not drawn) [Example 121, N-[5-(5-methoxypyridin-3-yl)-6-(2-phenylethynyl)pyridin-2-yl]-2-(methylamino)propanamide] | 7.01 | 7.51
CNC(C)C(=O)Nc1ccc(-c2cncc(Cl)c2)c(C#Cc2ccccc2)n1 (stereo not drawn) [Example 122, N-[5-(5-chloropyridin-3-yl)-6-(2-phenylethynyl)pyridin-2-yl]-2-(methylamino)propanamide] | 6.83 | 7.64
CNC(C)C(=O)Nc1ccc(-c2cncc(C#N)c2)c(C#Cc2ccccc2)n1 (stereo not drawn) [Example 123, N-[5-(5-cyanopyridin-3-yl)-6-(2-phenylethynyl)pyridin-2-yl]-2-(methylamino)propanamide] | 6.92 | 7.60
CCOc1ccc(-c2ccc(NC(=O)C(C)NC)nc2C#Cc2ccccc2)cn1 (stereo not drawn) [Example 125, N-[5-(6-ethoxypyridin-3-yl)-6-(2-phenylethynyl)pyridin-2-yl]-2-(methylamino)propanamide] | 6.24 | 6.88
CNC(C)C(=O)Nc1ccc(-c2ccc(OC)nc2OC)c(C#Cc2ccccc2)n1 (stereo not drawn) [Example 126, N-[5-(2,6-dimethoxypyridin-3-yl)-6-(2-phenylethynyl)pyridin-2-yl]-2-(methylamino)propanamide] | 6.00 | 6.78
CNC(C)C(=O)Nc1ccc(-c2cncc(C)c2)c(C#Cc2ccccc2)n1 (stereo not drawn) [Example 127, 2-(methylamino)-N-[5-(5-methylpyridin-3-yl)-6-(2-phenyl-ethynyl)pyridin-2-yl]propanamide] | 6.89 | 7.68
CNC(C)C(=O)Nc1ccc(-c2ccc(N3CCCC3)nc2)c(C#Cc2ccccc2)n1 (stereo not drawn) [Example 129, 2-(methylamino)-N-[6-(2-phenyl-ethynyl)-5-(6-pyrrolidin-1-ylpyridin-3-yl)pyridin-2-yl]-propanamide] | 6.36 | 7.01
CNC(C)C(=O)Nc1ccc(-c2cccc3ccccc23)c(C#Cc2ccccc2)n1 (stereo not drawn) [Example 130, 2-(methylamino)-N-[5-naphthalen-1-yl-6-(2-phenyl-ethynyl)pyridin-2-yl]propanamide] | 5.49 | 6.76
CNC(C)C(=O)Nc1ccc(-c2cc(F)cc(C(=O)OC)c2)c(C#Cc2ccccc2)n1 (stereo not drawn) [Example 132, methyl 3-fluoro-5-[6-[[2-(methyl-amino)propanoyl]amino]-2-(2-phenylethynyl)pyridin-3-yl]-benzoate] | 6.49 | 7.01
CNC(C)C(=O)Nc1ccc(-c2cnn3ccccc23)c(C#Cc2ccccc2)n1 (stereo not drawn) [Example 138, 2-(methylamino)-N-[6-(2-phenyl-ethynyl)-5-pyrazolo[1,5-a]-pyridin-3-ylpyridin-2-yl]propan-amide] | 7.26 | 7.92
CNC(C)C(=O)Nc1ccc(-c2cscc2C#N)c(C#Cc2ccccc2)n1 (stereo not drawn) [Example 145, N-[5-(4-cyanothiophen-3-yl)-6-(2-phenylethynyl)pyridin-2-yl]-2-(methylamino)propanamide] | 6.50 | 7.03
CNC(C)C(=O)Nc1ccc(-c2ccc(C)nc2)c(C#Cc2ccccc2)n1 (stereo not drawn) [Example 147, 2-(methylamino)-N-[5-(6-methylpyridin-3-yl)-6-(2-phenyl-ethynyl)pyridin-2-yl]propanamide] | 6.90 | 7.49
CNC(C)C(=O)Nc1ccc(-c2cncc(-c3ccccc3)c2)c(C#Cc2ccccc2)n1 (stereo not drawn) [Example 149, 2-(methylamino)-N-[6-(2-phenyl-ethynyl)-5-(5-phenylpyridin-3-yl)pyridin-2-yl]propanamide] | 6.71 | 7.10
CNC(C)C(=O)Nc1ccc(-c2cnc(N3CCOCC3)nc2)c(C#Cc2ccccc2)n1 (stereo not drawn) [Example 161, 2-(methylamino)-N-[5-(2-morpholin-4-ylpyrimidin-5-yl)-6-(2-phenylethynyl)pyridin-2-yl]-propanamide] | 6.99 | 7.66
Cc1noc(C)c1-c1ccc(NC(=O)C(C)N)nc1C#Cc1ccccc1 (stereo not drawn) [Example 165, 2-amino-N-[5-(3,5-dimethyl-1,2-oxazol-4-yl)-6-(2-phenylethynyl)-pyridin-2-yl]propanamide] | 7.17 | 9.00
[2H]C([2H])([2H])NC(C)C(=O)Nc1ccc(-c2c(C)noc2C)c(C#Cc2ccccc2)n1 (stereo not drawn) [Example 168, N-[5-(3,5-dimethyl-1,2-oxazol-4-yl)-6-(2-phenylethynyl)pyridin-2-yl]-2-(trideuteriomethylamino)propanamide] | 6.82 | 8.52
CNC(C)C(=O)Nc1ccc(-c2c(C)nc3ccccn23)c(C#Cc2ccccc2)n1 (stereo not drawn) [Example 174, 2-(methylamino)-N-[5-(2-methyl-imidazo[1,2-a]pyridin-3-yl)-6-(2-phenylethynyl)pyridin-2-yl]-propanamide] | 7.29 | 9.00

SMILES | pIC50 (XIAP BIR3) | pIC50 (cIAP1 BIR3)
CNC(C)C(=O)Nc1ccc(-c2ccc3c(c2)C(=O)NC3=O)c(C#Cc2ccccc2)n1 (stereo not drawn) [Example 175, N-[5-(1,3-dioxoisoindol-5-yl)-6-(2-phenylethynyl)pyridin-2-yl]-2-(methylamino)propanamide] | 6.99 | 7.80
CNC(C)C(=O)Nc1ccc(-c2cc(C(=O)OC)cc(C(=O)OC)c2)c(C#Cc2ccccc2)n1 (stereo not drawn) [Example 176, dimethyl 5-[6-[[2-(methylamino)-propanoyl]amino]-2-(2-phenyl-ethynyl)pyridin-3-yl]benzene-1,3-dicarboxylate] | 7.30 | 7.64
CNC(C)C(=O)Nc1ccc(-c2ccc3c(c2)C(=O)c2ccccc2-3)c(C#Cc2ccccc2)n1 (stereo not drawn) [Example 177, 2-(methylamino)-N-[5-(9-oxofluoren-2-yl)-6-(2-phenyl-ethynyl)pyridin-2-yl]propanamide] | 6.47 | 7.04
CNC(=O)c1ccc(-c2ccc(NC(=O)C(C)NC)nc2C#Cc2ccccc2)cn1 (stereo not drawn) [Example 182, N-methyl-5-[6-[[2-(methyl-amino)propanoyl]amino]-2-(2-phenylethynyl)pyridin-3-yl]-pyridine-2-carboxamide] | 6.87 | 7.44
CNC(C)C(=O)Nc1ccc(-c2nnc(Cl)c3ccccc23)c(C#Cc2ccccc2)n1 (stereo not drawn) [Example 184, N-[5-(4-chlorophthalazin-1-yl)-6-(2-phenylethynyl)pyridin-2-yl]-2-(methylamino)propanamide] | 6.86 | 7.77
CNC(C)C(=O)Nc1ccc(-c2c(-c3ccncc3)nc3cc(C)ccn23)c(C#Cc2ccccc2)n1 (stereo not drawn) [Example 185, 2-(methylamino)-N-[5-(7-methyl-2-pyridin-4-ylimidazo[1,2-a]-pyridin-3-yl)-6-(2-phenyl-ethynyl)pyridin-2-yl]propanamide] | 7.80 | 9.00
CNC(C)C(=O)Nc1ccc(-c2sc(C)nc2C)c(C#Cc2ccccc2)n1 (stereo not drawn) [Example 186, N-[5-(2,4-dimethyl-1,3-thiazol-5-yl)-6-(2-phenylethynyl)pyridin-2-yl]-2-(methylamino)propanamide] | 6.82 | 7.80
CNC(C)C(=O)Nc1ccc(-c2ccc3ncn(C)c(=O)c3c2)c(C#Cc2ccccc2)n1 (stereo not drawn) [Example 187, 2-(methylamino)-N-[5-(3-methyl-4-oxoquinazolin-6-yl)-6-(2-phenylethynyl)pyridin-2-yl]-propanamide] | 7.31 | 8.05
CNC(C)C(=O)Nc1ccc(-c2cnn(C)c2C)c(C#Cc2ccccc2)n1 (stereo not drawn) [Example 189, N-[5-(1,5-dimethylpyrazol-4-yl)-6-(2-phenylethynyl)pyridin-2-yl]-2-(methylamino)propanamide] | 7.06 | 7.52
CNC(C)C(=O)Nc1ccc(-c2cnc(N3CCN(C)CC3)nc2)c(C#Cc2ccccc2)n1 (stereo not drawn) [Example 191, 2-(methylamino)-N-[5-[2-(4-methylpiperazin-1-yl)pyrimidin-5-yl]-6-(2-phenylethynyl)pyridin-2-yl]propanamide] | 6.99 | 7.66
CNC(C)C(=O)Nc1ccc(-c2cnc(-n3ccnc3)nc2)c(C#Cc2ccccc2)n1 (stereo not drawn) [Example 192, N-[5-(2-imidazol-1-ylpyrimidin-5-yl)-6-(2-phenylethynyl)pyridin-2-yl]-2-(methylamino)propan-amide] | 7.12 | 7.66
CNC(C)C(=O)Nc1ccc(-c2cnc(C(=O)OC)nc2)c(C#Cc2ccccc2)n1 (stereo not drawn) [Example 194, methyl 5-[6-[[2-(methylamino)-propanoyl]amino]-2-(2-phenyl-ethynyl)pyridin-3-yl]pyrimidine-2-carboxylate] | 6.99 | 7.64
CNC(C)C(=O)Nc1ccc(-c2c(C)ncn2C)c(C#Cc2ccccc2)n1 (stereo not drawn) [Example 195, N-[5-(3,5-dimethylimidazol-4-yl)-6-(2-phenylethynyl)pyridin-2-yl]-2-(methylamino)propanamide] | 6.57 | 8.40
CNC(C)C(=O)Nc1cc(C(F)(F)F)cc(C#Cc2ccccc2)n1 (stereo not drawn) [Example 198, 2-(methylamino)-N-[6-(2-phenylethynyl)-4-(trifluoromethyl)pyridin-2-yl]propanamide] | 4.98 | 5.31
CC(N)C(=O)Nc1cc2ccccc2c(C#Cc2ccsc2)n1 (stereo not drawn) [Example 203, 2-amino-N-[1-(2-thiophen-3-ylethynyl)isoquinolin-3-yl]propanamide] | 6.12 | 6.60
CC(N)C(=O)Nc1cc2ccccc2c(C#Cc2ccccc2)n1 (stereo not drawn) [Example 204, 2-amino-N-[1-(2-phenyl-ethynyl)isoquinolin-3-yl]-propanamide] | 6.15 | 6.37
